Source: US10174067B2, “Type of cytidine derivative and application thereof” (priority 2014, dated 2019)
Marks after values point to notes of the source that are not given here.

Assays:
[1] = for Day 22 Mortality: single IP dose (mg/kg); for Weight change rate, Day 0 / Weight of mice, Day 0 / Weight change rate, Day 4 / Weight of mice, Day 4 / Weight change rate, Day 6 / Weight of mice, Day 6 / Weight change rate, Day 8 / Weight of mice, Day 8 / Weight change rate, Day 11 / Weight of mice, Day 11 / Weight change rate, Day 13 / Weight of mice, Day 13 / Weight change rate, Day 15 / Weight of mice, Day 15 / Weight change rate, Day 18 / Weight of mice, Day 18 / Weight change rate, Day 20 / Weight of mice, Day 20 / Weight change rate, Day 22 / Weight of mice, Day 22: G3-G9 groups, single IP dose, Mean±SEM; for clinical symptoms: after single IP dose, compared with model control group
Description: To determine the growth inhibition effect and toxicity of the cytidine derivative samples of the present invention on the transplanted tumor of nude mice bearing colon cancer HCT-116.
(§1) The corresponding amount of test substance was taken in a 5 mL glass tube and dissolved in ethanol with a 5 mm magnetic stirrer for stirring. After dissolving completely, Cremophor EL was added with continuous stirring. The marked amount of saline was added and mixed evenly before use. The volume ratio of ethanol, Cremophor EL, and physiological saline was 5:5:90.
Varieties and lines; Balb/c Nude mice; level: SPF; sex: female.
4.2 Animal inoculation and grouping: Each nude mouse was inoculated subcutaneously with 0.1 mL of cell suspension (3×10^6 cell/mouse) at right side of hind limb in a sterile stale. When the tumor grew to about 60-150 mm^3, the nude mice with similar tumor volume and desirable shape were selected (it would be better to select single spherical shape, no irregular shape or multiple tumors grouped together) for grouping, 6 mice a group. The grouping is as follows:
The control group, namely the model control group, was injected with a mixture of ethanol, Cremophor EL, and saline (5:5:90).
Those mice were weighed three times a week.
All clinical symptoms of each animal should be recorded at the beginning of the test and during the test. The observations should be made at the same time each day.
An animal would be killed by CO2 when its weight loss was more than 20%, when it was about to die, or when its tumor volume exceeded 2800 mm^3. The tumor was separated and weighed, and the animal was autopsied and observed to evaluate and record whether there were pathological changes in the organs.
The data were expressed as Mean±SEM unless specially provided; Non-pairing T test was performed for the data between the two groups. P<0.05 was considered as significant difference.

[2] = test system: HCT-116 colon cancer xenografts; experiment: Tumor growth inhibition of HCT-116 colon cancer xenografts in tumor-bearing nude mice (tumor volume, TGI %, RTV, T/C %); type: in vivo, Balb/c Nude mice; conditions: for Day 0 (RTV) / Tumor volume, Day 0 / Day 4 (RTV) / Tumor volume, Day 4 / Day 6 (RTV) / Tumor volume, Day 6 / Day 8 (RTV) / Tumor volume, Day 8 / Day 11 (RTV) / Tumor volume, Day 11 / Day 13 (RTV) / Tumor volume, Day 13 / Day 15 (RTV) / Tumor volume, Day 15 / Day 18 (RTV) / Tumor volume, Day 18 / Day 20 (RTV) / Tumor volume, Day 20 / Day 22 (RTV) / Tumor volume, Day 22: Mean±SEM; for relative tumor volume compared with the model control group: G4 and G5 Day 4 to Day 18, G7 Day 4 to Day 15 (p<0.05-0.01), G9 only Day 4 (p<0.05); for maximum value of TGI %: day of maximum: G3 Day 8, G4 Day 11, G5 Day 11, G9 Day 4, G7 Day 8
Description: 4.1 Tumor cells: colon cancer HCT-116 cells, purchased from the Institute of Cell Biology, Chinese Academy of Sciences. The cells were incubated by F-12 medium (containing 10% FBS) in carbon dioxide incubator at 37° C. and in saturated humidity, with 5% CO2 and 95% air in volume fraction. Before inoculation, the cells at logarithmic phase were taken, and digested with 0.25% trypsin, washed once with PBS and resuspended in PBS for counting. The cells were resuspended in serum-free medium and adjusted to about 3×10^7 cell/mL.
The grouping is as follows:
The formations of tumor at the inoculation site of each group of nude mice were observed. The diameter of tumor nodule (D) was measured three times a week with round hole ruler, and the volume of tumor nodule (V) was calculated according to the following formula: […].
Anti-tumor activity was evaluated by tumor growth inhibition rate TGI (%) and relative tumor proliferation rate T/C (%).
The relative tumor volume (RTV) was calculated as: RTV=Vt/V0, where V0 was the tumor volume when they were grouped and administered, and Vt was the tumor volume at the time of measurement.
The relative proliferation rate T/C (%) was calculated as: […].
TRTV: RTV of the treatment group; CRTV: RTV of the control group.
P<0.05 was considered as significant difference.

ICR mice = experiment: in vivo; conditions: female ICR mice; single-dose ip
Description: This experiment was to investigate the toxic effects of single-dose intraperitoneal administration on ICR mice and determine the maximum tolerated dose (MTD) of each subject. Maximum tolerated dose (MTD) refers to the dose that may not cause an animal to die, may not cause the animal to suffer weight loss exceeding 10% (compared with Day 0), or may not produce significant side effects.
as §1
Varieties and lines: ICR mice; level: SPF; sex: female.
Method of administration: ip. The dose was reduced in case of animal death, till an animal survived; the dose was increased in case of no animal death; the test was ended when the animals survived normally at the given high dose. Finally, the MTD of the mice on the test substances was determined according to the test results. The animals were observed continuously for 7 days after acute administration.
During the experiment, all animals were under detailed and continuous clinical observation for […], twice a day (10:00 am, 16:00 pm) after administration. The observation included but not limited to: skin, hair, ear, nose, mouth, chest, abdomen, external genitalia, limbs and feet, respiratory and circulatory system, autonomic effects (such as salivation), nervous system (such as tremor, convulsions, stress response and abnormal behavior).
The body of animals was weighed before administration, and then weighed and recorded at the same time each day.
The observation results, animal body weight, and animal survival after one week of administration were recorded in detail every day.

[3] = Day 22, G3-G9 groups, single IP dose

## Cl.Nc1ccn([C@@H]2O[C@H](CO)[C@@H](O)C2(F)F)c(=O)n1 [Compound G1, 2′deoxy-2′,2′-difluorocytidine hydrochloride, reference compound]
[1]
  Day 22 Mortality: 100%

## CC(C)(C)OC(=O)Nc1ccn([C@@H]2O[C@H](COC(=O)Cn3cnc([N+](=O)[O-])c3)[C@@H](O)C2(F)F)c(=O)n1 [Compound G9, 5′-O-[2-(4-nitro-1H-imidazole)acetate]-4-N-(tert-butoxycarbonyl)-2′-deoxy-2′,2′-difluorocytidine]
[1]
  Weight change rate, Day 0: 0.00 ± 0.00%
  Weight of mice, Day 0: 20.55 ± 0.56 g
  Weight change rate, Day 6: 2.53 ± 2.85%
  Weight of mice, Day 6: 21.02 ± 0.48 g
  Weight change rate, Day 8: 3.54 ± 3.17%
  Weight of mice, Day 8: 21.22 ± 0.51 g
  Weight change rate, Day 11: 5.18 ± 2.98%
  Weight of mice, Day 11: 21.55 ± 0.43 g
  Weight change rate, Day 13: 7.65 ± 3.18%
  Weight of mice, Day 13: 22.05 ± 0.42 g
  Weight change rate, Day 15: 5.50 ± 3.26%
  Weight of mice, Day 15: 21.60 ± 0.33 g
  Weight change rate, Day 18: 3.38 ± 3.55%
  Weight of mice, Day 18: 21.17 ± 0.46 g
  Weight change rate, Day 20: 2.91 ± 3.85%
  Weight of mice, Day 20: 21.05 ± 0.36 g
  Weight change rate, Day 22: 8.18 ± 4.15%
  Weight of mice, Day 22: 22.13 ± 0.47 g
  Day 22 Mortality: 0%
  clinical symptoms: no significant differences in clinical symptoms
[1]; Day 4
  Weight change rate, Day 4: −0.08 ± 3.14%
  Weight of mice, Day 4: 20.48 ± 0.57 g
[2]; G3-G9 groups, single IP dose
  Day 0 (RTV): 1.00 ± 0.00
  Tumor volume, Day 0: 42.31 ± 7.52** mm^3
  Day 4 (TGI %): 80.77%
  Day 4 (RTV): 1.21 ± 0.16
  Tumor volume, Day 4: 51.25 ± 10.24** mm^3
  Day 6 (TGI %): 80.67%
  Day 6 (RTV): 1.82 ± 0.40
  Tumor volume, Day 6: 81.69 ± 23.70** mm^3
  Day 8 (TGI %): 79.22%
  Day 8 (RTV): 2.72 ± 0.82
  Tumor volume, Day 8: 109.19 ± 29.60** mm^3
  Day 11 (TGI %): 76.07%
  Day 11 (RTV): 4.91 ± 1.08
  Tumor volume, Day 11: 192.42 ± 37.84** mm^3
  Day 13 (TGI %): 72.93%
  Day 13 (RTV): 8.16 ± 1.87
  Tumor volume, Day 13: 314.26 ± 60.92** mm^3
  Day 15 (TGI %): 60.81%
  Day 15 (RTV): 13.83 ± 2.98
  Tumor volume, Day 15: 553.69 ± 115.02** mm^3
  Day 18 (TGI %): 51.00%
  Day 18 (RTV): 23.10 ± 5.36
  Tumor volume, Day 18: 907.03 ± 187.09** mm^3
  Day 20 (TGI %): 42.39%
  Day 20 (RTV): 31.85 ± 7.62
  Tumor volume, Day 20: 1221.09 ± 228.29** mm^3
[2]; [3]
  Day 22 (RTV): 42.35 ± 10.48
  Tumor volume, Day 22: 1607.01 ± 297.45** mm^3
[2]
  relative tumor volume compared with the model control group: reduced significantly
[2]; single IP
  maximum value of TGI %: 80.77%

## O=C(Nc1ccn([C@@H]2O[C@H](CO)[C@@H](O)C2(F)F)c(=O)n1)OCc1ccc([N+](=O)[O-])cc1 [Compound G5, 4-N-(4-nitrocarboxybenzyl)-2′-deoxy-2′,2′-difluorocytidine]
[1]
  Weight change rate, Day 0: 0.00 ± 0.00%
  Weight of mice, Day 0: 21.03 ± 0.47 g
  Weight change rate, Day 6: −1.16 ± 2.31%
  Weight of mice, Day 6: 20.82 ± 0.81 g
  Weight change rate, Day 8: 2.81 ± 1.37%
  Weight of mice, Day 8: 21.63 ± 0.62 g
  Weight change rate, Day 11: 4.96 ± 1.42%
  Weight of mice, Day 11: 22.07 ± 0.49 g
  Weight change rate, Day 13: 7.84 ± 1.39 %
  Weight of mice, Day 13: 22.67 ± 0.45 g
  Weight change rate, Day 15: 6.31 ± 1.39 %
  Weight of mice, Day 15: 22.35 ± 0.49 g
  Weight change rate, Day 18: 8.28 ± 1.61 %
  Weight of mice, Day 18: 22.75 ± 0.38 g
  Weight change rate, Day 20: 9.18 ± 1.65 %
  Weight of mice, Day 20: 22.95 ± 0.50 g
  Weight change rate, Day 22: 10.41 ± 2.03%
  Weight of mice, Day 22: 23.20 ± 0.47 g
  Day 22 Mortality: 0%
  clinical symptoms: no significant differences in clinical symptoms
[1]; Day 4 (G7: Day 4 and Day 6), p<0.05
  weights of animals on Day 4 after administration: significantly reduced
[1]; Day 4
  Weight change rate, Day 4: −8.40 ± 2.65 %
  Weight of mice, Day 4: 19.30 ± 0.85 g
[1]; Day 4, G4 350 mg/kg, G5 325 mg/kg, G7 250 mg/kg, single IP
  weight loss rate on Day 4 after administration: less than 10%
[1]; G4 Day 18 to Day 20 (p<0.05), G5 Day 13 to Day 20 (p<0.05~0.01)
  body weight compared with model control group: significantly increased
ICR mice
  dose that could be tolerated (maximum tolerated dose, MTD): 300 mg/kg
[2]; G3-G9 groups, single IP dose
  Day 0 (RTV): 1.00 ± 0.00
  Tumor volume, Day 0: 65.68 ± 20.50** mm^3
  Day 4 (TGI %): 77.08%
  Day 4 (RTV): 0.89 ± 0.17
  Tumor volume, Day 4: 61.06 ± 22.28** mm^3
  Day 6 (TGI %): 90.77%
  Day 6 (RTV): 0.62 ± 0.08
  Tumor volume, Day 6: 39.01 ± 12.19** mm^3
  Day 8 (TGI %): 93.03%
  Day 8 (RTV): 0.53 ± 0.06
  Tumor volume, Day 8: 36.63 ± 13.03** mm^3
  Day 11 (TGI %): 94.46%
  Day 11 (RTV): 0.60 ± 0.08
  Tumor volume, Day 11: 44.57 ± 18.01** mm^3
  Day 13 (TGI %): 93.46%
  Day 13 (RTV): 1.04 ± 0.14
  Tumor volume, Day 13: 75.90 ± 28.06** mm^3
  Day 15 (TGI %): 90.78%
  Day 15 (RTV): 1.91 ± 0.35
  Tumor volume, Day 15: 130.29 ± 45.17** mm^3
  Day 18 (TGI %): 87.26%
  Day 18 (RTV): 3.76 ± 0.64
  Tumor volume, Day 18: 235.85 ± 70.86** mm^3
  Day 20 (TGI %): 80.09%
  Day 20 (RTV): 8.51 ± 3.10
  Tumor volume, Day 20: 421.94 ± 104.20** mm^3
[2]; Day 8 to Day 13 after single-dose intraperitoneal administration
  tumor inhibition effect: good tumor inhibition effect
[2]; [3]
  Day 22 (TGI %): 74.55%
  Day 22 (RTV): 13.37 ± 4.65
  Tumor volume, Day 22: 665.68 ± 158.57** mm^3
[2]; Day 22, G4 350 mg/kg, G5 325 mg/kg, G7 250 mg/kg, single IP
  T/C % on Day 22: 68.77%
[2]
  relative tumor volume compared with the model control group: reduced significantly
[2]; single IP
  maximum value of TGI %: 94.46%
[2]; day of minimum: G4 Day 13, G5 Day 11, G7 Day 8, single IP
  minimum value of T/C %: 10.01%
